What was measured:
MAGL [1] = molecular target: T1, MAGL (Homo sapiens, UniProt Q99685); test: In vitro competitive activity-based protein profiling, MAGL, human; conditions: read-out: MAGL % inh. 1 μM (human)
T1 sequence (Q99685 1-303): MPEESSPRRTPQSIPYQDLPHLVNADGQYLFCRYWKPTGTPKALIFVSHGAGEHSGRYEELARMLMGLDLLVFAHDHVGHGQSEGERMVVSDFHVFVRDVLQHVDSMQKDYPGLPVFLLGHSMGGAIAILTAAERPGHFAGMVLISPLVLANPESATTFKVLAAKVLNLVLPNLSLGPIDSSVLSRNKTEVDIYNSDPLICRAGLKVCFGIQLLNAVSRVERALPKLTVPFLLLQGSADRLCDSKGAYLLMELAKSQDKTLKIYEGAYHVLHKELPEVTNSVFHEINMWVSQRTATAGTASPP

MAGL [2] = molecular target: T2, MAGL (Mus musculus, UniProt O35678); test: In vitro competitive activity-based protein profiling, MAGL, mouse; conditions: read-out: MAGL % inh. 1 μM (mouse)
T2 sequence (O35678 1-303): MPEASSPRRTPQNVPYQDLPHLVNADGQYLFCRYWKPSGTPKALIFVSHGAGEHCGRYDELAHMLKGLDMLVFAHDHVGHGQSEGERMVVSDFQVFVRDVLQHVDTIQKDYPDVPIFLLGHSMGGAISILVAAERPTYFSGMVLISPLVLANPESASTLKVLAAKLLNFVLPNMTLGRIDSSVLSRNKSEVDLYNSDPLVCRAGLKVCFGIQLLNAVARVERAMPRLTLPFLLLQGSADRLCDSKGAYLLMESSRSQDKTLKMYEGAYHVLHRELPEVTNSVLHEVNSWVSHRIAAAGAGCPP
Method: (§1) Biological Evaluation In Vitro Competitive Activity-Based Protein Profiling.
(§2) Proteomes (mouse brain membrane fraction for mouse assays; human prefrontal cortex membrane fractions for human assays) (50 mL, 1.0 mg/mL total protein concentration) were preincubated with varying concentrations of inhibitors at 37° C. After 30 min, FP-Rh (1.0 mL, 50 mM in DMSO) was added and the mixture was incubated for another 30 min at 37° C. Reactions were quenched with SDS loading buffer (15 μL—4λ) and run on SDS-PAGE.

FAAH [3] = molecular target: T3, FAAH (Homo sapiens, UniProt O00519); test: In vitro competitive activity-based protein profiling, FAAH, human; conditions: for inhibition at 1 µM: read-out: FAAH % inh. 1 μM (human)
T3 sequence (O00519 1-579): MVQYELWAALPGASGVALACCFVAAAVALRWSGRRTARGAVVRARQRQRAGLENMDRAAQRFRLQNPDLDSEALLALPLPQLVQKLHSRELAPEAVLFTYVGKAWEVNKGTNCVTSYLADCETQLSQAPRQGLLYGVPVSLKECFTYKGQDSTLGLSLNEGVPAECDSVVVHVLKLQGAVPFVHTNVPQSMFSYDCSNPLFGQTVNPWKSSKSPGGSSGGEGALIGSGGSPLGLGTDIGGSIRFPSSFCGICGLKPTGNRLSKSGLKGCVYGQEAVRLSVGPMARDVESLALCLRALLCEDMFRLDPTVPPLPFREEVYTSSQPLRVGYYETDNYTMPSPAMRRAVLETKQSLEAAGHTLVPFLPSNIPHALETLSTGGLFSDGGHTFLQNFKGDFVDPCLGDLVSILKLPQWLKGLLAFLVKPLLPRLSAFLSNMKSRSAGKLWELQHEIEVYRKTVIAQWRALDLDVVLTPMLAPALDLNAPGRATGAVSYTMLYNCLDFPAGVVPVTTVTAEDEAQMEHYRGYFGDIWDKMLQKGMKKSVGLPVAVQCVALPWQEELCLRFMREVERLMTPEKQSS
Method: as §1, §2

FAAH [4] = molecular target: T4, FAAH (Mus musculus, UniProt O08914); test: In vitro competitive activity-based protein profiling, FAAH, mouse; conditions: read-out: FAAH % inh. 1 μM (mouse)
T4 sequence (O08914 1-579): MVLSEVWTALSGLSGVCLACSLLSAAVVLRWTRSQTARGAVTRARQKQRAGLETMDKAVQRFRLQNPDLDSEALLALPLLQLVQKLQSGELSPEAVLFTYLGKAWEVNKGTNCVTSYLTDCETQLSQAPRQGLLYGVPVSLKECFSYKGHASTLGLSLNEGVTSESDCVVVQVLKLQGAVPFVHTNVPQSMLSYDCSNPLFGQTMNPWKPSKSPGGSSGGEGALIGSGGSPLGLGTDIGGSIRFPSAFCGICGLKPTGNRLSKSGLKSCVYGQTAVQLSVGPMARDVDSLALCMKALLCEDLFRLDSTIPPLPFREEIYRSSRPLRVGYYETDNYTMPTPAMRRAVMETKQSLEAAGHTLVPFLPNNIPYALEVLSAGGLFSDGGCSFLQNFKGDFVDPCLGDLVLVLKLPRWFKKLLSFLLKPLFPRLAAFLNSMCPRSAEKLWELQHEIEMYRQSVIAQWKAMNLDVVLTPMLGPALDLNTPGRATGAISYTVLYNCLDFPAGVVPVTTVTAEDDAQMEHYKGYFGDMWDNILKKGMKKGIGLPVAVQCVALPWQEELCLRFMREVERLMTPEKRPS

| Structure (SMILES) | inhibition at 1 µM (MAGL [1]) [%] | inhibition at 1 µM (MAGL [2]) [%] | inhibition at 1 µM (FAAH [3]) [%] | inhibition at 1 µM (FAAH [4]) [%] | IC50 (FAAH [3]) [nM] |
| --- | --- | --- | --- | --- | --- |
| O=C(O)c1ccn(C(=O)N2C[C@H]3C[C@H](Oc4cccc(-c5ccccc5)c4)C[C@H]3C2)n1 [Example 125, 1-(trans-5-([1,1′-biphenyl]-3-yloxy)octahydro-cyclopenta[c]pyrrole-2-carbonyl)-1H-pyrazole-3-carboxylic acid] | > 75 | > 75 | > 75 | > 75 | – |
| O=C(O)c1ccn(C(=O)N2CCC3(CCN(Cc4ccc(N5CCCC5)c(Cl)c4)C3)CC2)n1 [Example 168, 1-(2-(3-chloro-4-(pyrrolidin-1-yl)benzyl)-2,8-diazaspiro[4.5]decane-8-carbonyl)-1H-pyrazole-3-carboxylic acid] | 50 to 75 | 0 to 25 | 0 to 25 | 0 to 25 | – |
| NC(=O)c1ccn(C(=O)N2CCC3(CCN(Cc4ccc(N5CCOCC5)cc4Cl)C3)CC2)n1 [Example 197, 1-(2-(2-chloro-4-morpholinobenzyl)-2,8-diazaspiro[4.5]decane-8-carbonyl)-1H-pyrazole-3-carboxamide] | > 75 | > 75 | > 75 | > 75 | 100 to 1000 |
| O=C(O)c1nn(C(=O)N2CCC3(CCN(Cc4ccc(N5CCCC5)cc4C(F)(F)F)C3)CC2)cc1Cl [Example 138, 4-chloro-1-(2-(4-(pyrrolidin-1-yl)-2-(trifluoromethyl)benzyl)-2,8-diazaspiro[4.5]decane-8-carbonyl)-1H-pyrazole-3-carboxylic acid] | > 75 | > 75 | 0 to 25 | 50 to 75 | 100 to 1000 |
| NC(=O)c1ccn(C(=O)N2CC3CN(Cc4ccc(C(F)(F)F)cc4)CC3C2)n1 (centres unmarked) [Example 182, 1-(5-(4-(trifluoromethyl)benzyl)octahydro-pyrrolo[3,4-c]pyrrole-2-carbonyl)-1H-pyrazole-3-carboxamide] | > 75 | > 75 | > 75 | > 75 | – |
| Cc1ccc(CN2CCC3(CCN(C(=O)n4ccc(C(=O)O)n4)CC3)C2)cc1Cl [Example 154, 1-(2-(3-chloro-4-methylbenzyl)-2,8-diazaspiro[4.5]decane-8-carbonyl)-1H-pyrazole-3-carboxylic acid] | > 75 | > 75 | 0 to 25 | 0 to 25 | – |
| O=C(O)c1ccn(C(=O)N2CCC3(CCN(Cc4ccc(N5CCCC5)cc4C(F)(F)F)C3)CC2)n1 [Example 191, 1-(2-(4-(pyrrolidin-1-yl)-2-(trifluoromethyl)benzyl)-2,8-diazaspiro[4.5]decane-8-carbonyl)-1H-pyrazole-3-carboxylic acid] | > 75 | > 75 | 0 to 25 | 0 to 25 | – |
| O=C(O)c1ccn(C(=O)N2CCC3(CCN(Cc4cnccc4C(F)(F)F)C3)CC2)n1 [Example 127] | > 75 | > 75 | 0 to 25 | 0 to 25 | – |
| O=C(O)c1ccn(C(=O)N2CCN(Cc3ccc(C(F)(F)F)c(-c4nnco4)c3)CC2)n1 [Example 9, 1-(4-(3-(1,3,4-oxadiazol-2-yl)-4-(trifluoromethyl)benzyl)piperazine-1-carbonyl)-1H-pyrazole-3-carboxylic Acid] | > 75 | > 75 | 0 to 25 | 0 to 25 | – |
| O=C(O)c1ccn(C(=O)N2CCC3(CCCN3Cc3ccc(C(F)(F)F)cc3N3C4CCC3COC4)CC2)n1 [Example 82, 1-(1-(2-(3-oxa-8-azabicyclo[3.2.1]octan-8-yl)-4-(trifluoromethyl)benzyl)-1,8-diazaspiro[4.5]decane-8-carbonyl)-1H-pyrazole-3-carboxylic acid] | > 75 | > 75 | 0 to 25 | 0 to 25 | – |
| O=C(O)c1ccn(C(=O)N2CCN(Cc3ccc(Oc4ccc(Cl)cc4)cc3)CC2)n1 [Example 45, 1-(4-(4-(4-chlorophenoxy)benzyl)piperazine-1-carbonyl)-1H-pyrazole-3-carboxylic acid] | > 75 | > 75 | > 75 | > 75 | 100 to 1000 |
| CN(Cc1ccc(Cl)c(N2CCCC2)c1)C1(C)CCN(C(=O)n2ccc(C(=O)O)n2)CC1 [Example 39, 1-(4-((4-chloro-3-(pyrrolidin-1-yl)benzyl)(methyl)amino)-4-methylpiperidine-1-carbonyl)-1H-pyrazole-3-carboxylic acid] | > 75 | > 75 | 0 to 25 | 0 to 25 | – |

Second part, the compound after the results:

| inhibition at 1 µM (MAGL [1]) [%] | inhibition at 1 µM (MAGL [2]) [%] | inhibition at 1 µM (FAAH [3]) [%] | inhibition at 1 µM (FAAH [4]) [%] | IC50 (FAAH [3]) [nM] | Structure (SMILES) |
| --- | --- | --- | --- | --- | --- |
| > 75 | > 75 | 0 to 25 | 0 to 25 | – | O=C(O)c1ccn(C(=O)N2CCN(Cc3cccc(Oc4ccccn4)c3)CC2)n1 [Example 52] |
| 25 to 50 | 0 to 25 | 50 to 75 | 0 to 25 | – | O=C(O)c1ccn(C(=O)N2CCN(Cc3cccc(Oc4ccncn4)c3)CC2)n1 [Example 63, 1-(4-(3-(pyrimidin-4-yloxy)benzyl)piper-azine-1-carbonyl)-1H-pyrazole-3-carboxylic acid] |
| > 75 | > 75 | 0 to 25 | 50 to 75 | 100 to 1000 | O=C(O)c1ccn(C(=O)N2CCN(Cc3cccc(Oc4cccc(Cl)c4)c3)CC2)n1 [Example 84, 1-(4-(3-(3-chlorophenoxy)benzyl)piperazine-1-carbonyl)-1H-pyrazole-3-carboxylic acid] |
| 50 to 75 | 50 to 75 | 0 to 25 | 50 to 75 | – | O=C(O)c1ccn(C(=O)N2CC3CN(Cc4cccc(OC(F)(F)F)c4)CC3C2)n1 (centres unmarked) [Example 117, 1-(5-(3-(trifluoromethoxy)benzyl)octahydro-pyrrolo[3,4-c]pyrrole-2-carbonyl)-1H-pyrazole-3-carboxylic acid] |
| > 75 | > 75 | > 75 | 25 to 50 | 100 to 1000 | O=C(O)c1ccn(C(=O)N2C[C@H]3C[C@@H](Oc4cccc(-c5ccccc5)c4)C[C@H]3C2)n1 [Example 164, 1-(cis-5-([1,1′-biphenyl]-3-yloxy)octahydro-cyclopenta[c]pyrrole-2-carbonyl)-1H-pyrazole-3-carboxylic acid] |
| > 75 | > 75 | 0 to 25 | 25 to 50 | – | O=C(O)c1ccn(C(=O)N2CCC3(CCN(Cc4cccc(OC(F)(F)F)c4)C3)CC2)n1 [Example 153, 1-(2-(3-(trifluoromethoxy)benzyl)-2,8-diazaspiro[4.5]decane-8-carbonyl)-1H-pyrazole-3-carboxylic acid] |

Reference: US10266497B2 (ABIDE THERAPEUTICS, INC., priority 2017, dated 2019)
